Measurements as given in PubChem BioAssay AID2060906 (Molecular Pharmacology Branch, DTP, NCI, 2025).

Test system: 485176-168-R4-J1-PDC complex spheroid growth
Assay: Anticancer human tumor 485176-168-R4-J1-PDC patient-derived pancreatic adenocarcinoma cell line growth inhibition [RAS]
Details: for IC50: curve of first compound; for viability, T/C: stronger effect = lower value
Text: RAS pathway inhibitors in Combinations in Complex Spheroids
A high-throughput screen of multi-cell type tumor spheroids was designed to identify active combinations of RAS pathway inhibitors and targeted small molecules. Complex spheroids include a stromal component modeled by human endothelial cells (HUVEC) and fibroblasts modeled by human mesenchymal stem cells (MSCs). The concentration ranges selected for each drug and investigational agent were based upon clinically achievable concentrations if the clinical Cmax of the agent was known.
Compounds. The drugs and investigational agents: abemaciclib (NSC768073), cobimetinib (NSC768068), divarasib (GDC6063, NSC841802), docetaxel (NSC628503), GDC-1971 (RLY-1971, NSC841576), gemcitabine (NSC613327), inavolisib (NSC800729), ipatasertib (NSC767898), KB-0742 (NSC834161), MRTX-1133 (NSC836407), osimertinib (NSC779217), RMC-4630 (NSC839698), RMC-6236 (NSC851965), RMC-6291 (NSC852671), Ro-3306 (NSC812927), sapanisertib (NSC764658), SN-38 (NSC673596), staurosporine (NSC755774), SY5609 (NSC837396), and tovorafenib (DAY101, NSC766906), were obtained from the National Cancer Institute (NCI) Developmental Therapeutics Program Chemical Repository. The FDA-approved anticancer drug set is available from the NCI Developmental Therapeutics Program. […] The stock solutions were prepared in dimethyl sulfoxide (DMSO, Sigma-Aldrich, St. Louis, MO, cat. D2650) at 800-fold the tested concentration and stored at -70 degrees C prior to their use. All drugs and investigational agents were tested over a range starting from a high concentration at or near the clinical Cmax and decreasing in half-log increments. If the clinical Cmax for an agent had not been determined, the highest concentration tested was 10 microM.
Cell Culture. All cells were maintained in an incubator at 37 degrees C and 5% CO2 with 95% humidity. The PDC lines were cultured according to standard operating procedures established by the NCI PDMR. All PDCs were thawed and cultured in Matrigel-coated flasks prepared with a working solution of 1X Ham's F-12 nutrient mix, without supplementation (Invitrogen, Waltham, MA, cat. 11765054), 100 U/mL penicillin-streptomycin (Invitrogen, cat. 15140122), and 2.5% Matrigel (Corning Inc., Corning, NY, cat. 354248) for the first three passages. The 362531-283-R-J2-PDC and 782815-120-R-J1-PDC lines were cultured in 6C/Colon 1B media, which includes advanced DMEM/F-12 (Thermo Fisher Scientific, cat. 12634028), 10 mM HEPES (Thermo Fisher Scientific, cat. 15630080), 1X GlutaMAX supplement (Thermo Fisher Scientific, cat. 35050061), 0.1 mg/mL primocin (InvivoGen, San Diego, CA, cat. ant-pm-2), 10% defined fetal bovine serum, heat inactivated (HyClone Laboratories Inc., Logan, UT, cat. SH30070.03HI), 50% L-WRN conditioned media (ATCC, cat. CRL-3276), 1.25 mM N-Acetyl-L-cysteine (Sigma-Aldrich, cat. A9165), 10 mM nicotinamide (Sigma-Aldrich, cat. N0636), 1X B-27 supplement (Thermo Fisher Scientific, cat. 17504044), 1X N-2 supplement (Thermo Fisher Scientific, cat. 17502048), 50 ng/mL human EGF (Thermo Fisher Scientific, cat. PHG0311), and 10 microM Y-27632 dihydrochloride (Tocris Bioscience, cat. 1254). The K12877-001-R-J1-PDC line was cultured in 6I media, which includes all 6C/Colon 1B media plus 10 ng/mL human FGF-10 (PeproTech, cat. 100-26), 1 ng/mL human FGF-2 (PeproTech, cat. 100-18B), 1 µM prostaglandin E2 (Tocris Bioscience, cat. 2296), […] hydrocortisone (Sigma-Aldrich, cat. H4001), and […] bovine insulin (Sigma-Aldrich, cat. I6634). The K86415-001-R-J1-PDC line was cultured in 6D media, which includes all 6C/Colon 1B media components minus the L-WRN conditioned media. The 485176-168-R4-J1-PDC was cultured in PANC media, which includes all 6C/Colon 1B media plus 100 ng/mL human FGF-10 (PeproTech, cat. 100-26), 500 nM SB-431542 (Selleckchem, cat. S1067), and 10 nM gastrin (Tocris Bioscience, cat. 3006). […]

[1] = second compound 0.0316 µM, first compound 0.0316 µM
[2] = second compound 0.0316 µM, first compound 0.1 µM
[3] = second compound 0.0316 µM, first compound 0.316 µM
[4] = second compound 0.0316 µM, first compound 1 µM
[5] = second compound 0.0316 µM, first compound 3.16 µM
[6] = second compound 0.0316 µM, first compound 10 µM
[7] = second compound 0.1 µM, first compound 0.0316 µM
[8] = second compound 0.1 µM, first compound 0.1 µM
[9] = second compound 0.1 µM, first compound 0.316 µM
[10] = second compound 0.1 µM, first compound 1 µM
[11] = second compound 0.1 µM, first compound 3.16 µM
[12] = second compound 0.1 µM, first compound 10 µM
[13] = second compound 0.316 µM, first compound 0.0316 µM
[14] = second compound 0.316 µM, first compound 0.1 µM
[15] = second compound 0.316 µM, first compound 0.316 µM
[16] = second compound 0.316 µM, first compound 1 µM
[17] = second compound 0.316 µM, first compound 3.16 µM
[18] = second compound 0.316 µM, first compound 10 µM
[19] = second compound 1 µM, first compound 0.0316 µM
[20] = second compound 1 µM, first compound 0.1 µM
[21] = second compound 1 µM, first compound 0.316 µM
[22] = second compound 1 µM, first compound 1 µM
[23] = second compound 1 µM, first compound 3.16 µM
[24] = second compound 1 µM, first compound 10 µM
[25] = second compound 3.16 µM, first compound 0.0316 µM
[26] = second compound 3.16 µM, first compound 0.1 µM
[27] = second compound 3.16 µM, first compound 0.316 µM
[28] = second compound 3.16 µM, first compound 1 µM
[29] = second compound 3.16 µM, first compound 3.16 µM
[30] = second compound 3.16 µM, first compound 10 µM
[31] = second compound 10 µM, first compound 0.0316 µM
[32] = second compound 10 µM, first compound 0.1 µM
[33] = second compound 10 µM, first compound 0.316 µM
[34] = second compound 10 µM, first compound 1 µM
[35] = second compound 10 µM, first compound 3.16 µM
[36] = second compound 10 µM, first compound 10 µM
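Note: spheroids exposed to compounds for seven days before readout.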
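Throughout, for viability, T/C: luminescence viability expressed relative to DMSO vehicle wells set as 100%.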

In the case of `Cc1nc(N2CCC3(CC2)COC(C)C3N)c(CO)nc1Sc1ccnc(N)c1Cl` (centres undefined) + C#Cc1c(F)ccc2cc(O)cc(-c3ncc4c(N5CC6CCC(C5)N6)nc(OCC56CCCN5CC(F)C6)nc4c3F)c12, the IC50 (second compound 0.0316 µM) is reported as greater than 10 µM, the IC50 (second compound 0.1 µM) is reported as greater than 10 µM and the IC50 (second compound 0.316 µM) is reported as greater than 10 µM. The IC50 (second compound 1 µM) was greater than 10 µM, the IC50 (second compound 3.16 µM) was greater than 10 µM and the IC50 (second compound 10 µM) was greater than 10 µM. It also gave a viability, T/C [1] of 111%, a viability, T/C [2] of 89.3% and a viability, T/C [3] of 79.5%. The viability, T/C [4] was 82.5%, the viability, T/C [5] was 88.5% and the viability, T/C [6] was 73.4%. It also gave a viability, T/C [7] of 91.6%, a viability, T/C [8] of 99.6% and a viability, T/C [9] of 83.4%. For the same compound, the viability, T/C [10] was 84.4%, the viability, T/C [11] was 85.6% and the viability, T/C [12] was 83%. For the same compound, the viability, T/C [13] was 83%, the viability, T/C [14] was 85.4% and the viability, T/C [15] was 86.7%. For the same compound, the viability, T/C [16] was 70.6%, the viability, T/C [17] was 81.8% and the viability, T/C [18] was 77.3%. The viability, T/C [19] was 85.5%, the viability, T/C [20] was 102% and the viability, T/C [21] was 71.4%. For the same compound, the viability, T/C [22] was 75.3%, the viability, T/C [23] was 77.7% and the viability, T/C [24] was 70.8%. It also gave a viability, T/C [25] of 92.6%, a viability, T/C [26] of 98.1% and a viability, T/C [27] of 96.2%. It also gave a viability, T/C [28] of 75.9%, a viability, T/C [29] of 86.5% and a viability, T/C [30] of 64.1%. It also gave a viability, T/C [31] of 80.4%, a viability, T/C [32] of 87.4% and a viability, T/C [33] of 87%. It also gave a viability, T/C [34] of 82.1%, a viability, T/C [35] of 80% and a viability, T/C [36] of 86.6%.

`NC1c2ccccc2OC12CCN(c1cnc3c(N4CCCc5ncccc54)n[nH]c3n1)CC2` (centres undefined) + C#Cc1c(F)ccc2cc(O)cc(-c3ncc4c(N5CC6CCC(C5)N6)nc(OCC56CCCN5CC(F)C6)nc4c3F)c12 was tested, and the IC50 (second compound 0.0316 µM) was greater than 10 µM, the IC50 (second compound 0.1 µM) was greater than 10 µM and the IC50 (second compound 0.316 µM) was greater than 10 µM. It also gave an IC50 (second compound 1 µM) greater than 10 µM, an IC50 (second compound 3.16 µM) greater than 10 µM and an IC50 (second compound 10 µM) greater than 10 µM. It also gave a viability, T/C [1] of 77%, a viability, T/C [2] of 79.1% and a viability, T/C [3] of 78.5%. For the same compound, the viability, T/C [4] was 77.6%, the viability, T/C [5] was 75.3% and the viability, T/C [6] was 62.4%. The viability, T/C [7] was 83%, the viability, T/C [8] was 82.9% and the viability, T/C [9] was 78.7%. The viability, T/C [10] was 76.2%, the viability, T/C [11] was 90.1% and the viability, T/C [12] was 62.5%. For the same compound, the viability, T/C [13] was 78.4%, the viability, T/C [14] was 82.8% and the viability, T/C [15] was 73.9%. The viability, T/C [16] was 72.6%, the viability, T/C [17] was 79.3% and the viability, T/C [18] was 58.8%. It also gave a viability, T/C [19] of 78.6%, a viability, T/C [20] of 74% and a viability, T/C [21] of 85.5%. The viability, T/C [22] was 80.6%, the viability, T/C [23] was 87.8% and the viability, T/C [24] was 70%. It also gave a viability, T/C [25] of 79.8%, a viability, T/C [26] of 68.9% and a viability, T/C [27] of 64.5%. For the same compound, the viability, T/C [28] was 82.8%, the viability, T/C [29] was 80.5% and the viability, T/C [30] was 61.3%. The viability, T/C [31] was 91.4%, the viability, T/C [32] was 79.2% and the viability, T/C [33] was 68.8%. For the same compound, the viability, T/C [34] was 67.2%, the viability, T/C [35] was 91.1% and the viability, T/C [36] was 64.5%.
